Test results: patent publication US6716814B2, “Enhancing solubility of iron amino acid chelates and iron proteinates” (Albion International, Inc., priority 2001, dated 2004)

Tests used:
[1] = pH of hydrated iron proteinate with or without added compound (Example 4); type: physicochemical; settings: compound added to iron proteinate solution, compound to iron content about 1:1 by weight
Method: (§1) A small amount of the solution was placed on filter paper with a pipette. […] Next, several different organic acids and sugars were added to various samples of the solution. Each was inspected both visually and by placing a small amount of solution on filter paper with a pipette.

[2] = Filter paper ring characterization of hydrated iron proteinate (Example 4); type: physicochemical; settings: compound added to iron proteinate solution, about 1:1 by weight to iron
Method: An iron proteinate or iron protein hydrolysate which was hydrolyzed from a vegetable protein was formed having an iron content of about 10%. […] A small amount of the solution was placed on filter paper with a pipette. […] Next, several different organic acids and sugars were added to various samples of the solution. Each was inspected both visually and by placing a small amount of solution on filter paper with a pipette. […] This is evidenced by darker rings remaining on the filter paper which corresponded to location of the waterfront.

[3] = Visual inspection of hydrated iron proteinate with or without added compound (Example 4); type: physicochemical; settings: compound added to iron proteinate solution, compound to iron content about 1:1 by weight
Method: as §1

[4] = Visual inspection of aqueous iron bisglycinate with added compound (Example 3); type: physicochemical; settings: compound added to aqueous iron bisglycinate, compound to iron content about 1.8:1 by weight
[5] = Filter paper ring characterization of aqueous iron bisglycinate (Example 3); type: physicochemical; settings: for RING APPEARANCE: compound added to aqueous iron bisglycinate, about 1.8:1 by weight to iron, filter paper after drying
[6] = Filter paper test of hydrated samples (Example 1, Phase 1); type: physicochemical; settings: hydrated with water sufficient to dissolve, after 4 hours, solution placed on filter paper with pipette
Method: After hydrating Sample 1 and Sample 2 with an amount of water sufficient to dissolve the respective powders and allowing 4 hours to pass, a small amount of each solution was placed on filter paper with a pipette. By placing the two solutions on paper in this manner, the respective solutions were allowed to disperse away from the point of application while leaving behind any solids that may have formed.

[7] = Visual examination of solutions retained in test tubes (Example 1, Phase 2); settings: solution retained in test tube 20 additional hours (after first 4 hours)

Question: What does the source list for `CC(=O)O` [Acetic Acid]?
Answer: pH [1]: 3.0; RING APPEARANCE [2]: dark brown waterfront ring; VISUAL [3]: no change

Question: Which results are given for `O=C1O[C@H]([C@@H](O)CO)C(O)=C1O` [Ascorbic Acid]?
Answer: pH [1]: 4.5; RING APPEARANCE [2]: dark brown waterfront ring; VISUAL [3]: no change; VISUAL [4]: no precipitation; RING APPEARANCE [5]: dark waterfront ring

Question: What does the source list for `O=C(O)CC(O)(CC(=O)O)C(=O)O` [Citric Acid]?
Answer: pH [1]: 1.5; RING APPEARANCE [2]: dark brown waterfront ring; VISUAL [3]: no change

Question: With `CC(O)C(=O)O` (centres unmarked) [Lactic Acid] as the molecule, how does the pH [1] read?
Answer: 1.0

Question: And the “RING APPEARANCE” value [2]?
Answer: dark brown waterfront ring

Question: And the VISUAL [3]?
Answer: no change

Question: And the VISUAL [4]?
Answer: no precipitation

Question: What about the “RING APPEARANCE” value [5] of the same molecule?
Answer: dark waterfront ring

Question: Which pH [1] does the source give for `O=C(O)CC(O)C(=O)O` (centres unmarked) [Malic Acid] here?
Answer: 2.0

Question: What about the “RING APPEARANCE” value [2] of the same molecule?
Answer: dark brown waterfront ring

Question: What about the VISUAL [3] of the same molecule?
Answer: no change

Question: What about the VISUAL [4] of the same molecule?
Answer: no precipitation

Question: And the “mobility and solubility on the filter paper” value ([5]; added to separate samples of iron bisglycinate, versus control)?
Answer: enhancement of mobility and solubility

Question: And the “RING APPEARANCE” value [5]?
Answer: dark waterfront ring

Question: Which results are given for `NCC(=O)[O-].NCC(=O)[O-].[Fe+2]` [Sample 1, ferrous bisglycinate]?
Answer: solids left behind on filter paper [6]: small clump of precipitate; portion precipitated from solution (visual examination) [7]: approximately 50%

Question: For `O=C(O)CCC(=O)O` [Succinic Acid], which pH [1] is on record?
Answer: 2.0

Question: What about the “RING APPEARANCE” value [2] of the same molecule?
Answer: dark brown waterfront ring

Question: And the VISUAL [3]?
Answer: no change

Question: What does the source list for `OC[C@H]1O[C@@](CO)(O[C@H]2O[C@H](CO)[C@@H](O)[C@H](O)[C@H]2O)[C@@H](O)[C@@H]1O` [Sucrose]?
Answer: pH [1]: 7.0; RING APPEARANCE [2]: brown staggered rings; VISUAL [3]: no change; VISUAL [4]: precipitated solids; RING APPEARANCE [5]: light staggered ring
